# Source: the NIST ThermoML archive (doi:10.1016/j.jct.2012.09.017)
# ± gives the expanded uncertainty stated by the source.
# Assay: activity coefficient (dimensionless); of the first substance listed, at infinite dilution; xn = mol fraction of the nth substance listed
# Settings: 101 kPa, Liquid, Chromatography, x1 = 0
Compound,activity coefficient (318.15 K),activity coefficient (323.15 K),activity coefficient (333.15 K),activity coefficient (343.15 K),activity coefficient (353.15 K),activity coefficient (363.15 K),activity coefficient (373.15 K)
"COCCOC [1,2-dimethoxyethane] + CCCC[N+]1(C)CCCC1.N#C[B-](C#N)(C#N)C#N",0.506 ± 0.031,0.524 ± 0.031,0.56 ± 0.032,0.594 ± 0.032,0.628 ± 0.033,,
"COCCOC [1,2-dimethoxyethane] + CCCC[N+]1(C)CCCC1.O=C1O[B-]2(OC1=O)OC(=O)C(=O)O2",,,1.16 ± 0.05,1.2 ± 0.06,1.23 ± 0.06,1.26 ± 0.06,1.29 ± 0.06
"Cc1cccc(C)c1 [1,3-dimethylbenzene] + CCCC[N+]1(C)CCCC1.N#C[B-](C#N)(C#N)C#N",1.63 ± 0.08,1.64 ± 0.08,1.66 ± 0.08,1.69 ± 0.08,1.72 ± 0.09,,
"Cc1cccc(C)c1 [1,3-dimethylbenzene] + CCCC[N+]1(C)CCCC1.O=C1O[B-]2(OC1=O)OC(=O)C(=O)O2",,,3.96 ± 0.2,3.84 ± 0.2,3.73 ± 0.19,3.64 ± 0.19,3.55 ± 0.18
"FC(F)(F)C(Cl)Br (stereo not given) [1-bromo-1-chloro-2,2,2-trifluoroethane] + CCCC[N+]1(C)CCCC1.N#C[B-](C#N)(C#N)C#N",0.842 ± 0.039,0.869 ± 0.04,0.923 ± 0.041,0.977 ± 0.043,1.03 ± 0.05,,
"FC(F)(F)C(Cl)Br (stereo not given) [1-bromo-1-chloro-2,2,2-trifluoroethane] + CCCC[N+]1(C)CCCC1.O=C1O[B-]2(OC1=O)OC(=O)C(=O)O2",,,1.61 ± 0.08,1.66 ± 0.08,1.72 ± 0.09,1.77 ± 0.09,1.82 ± 0.09
COC(C)(C)C [2-methoxy-2-methylpropane] + CCCC[N+]1(C)CCCC1.N#C[B-](C#N)(C#N)C#N,2.39 ± 0.12,2.41 ± 0.12,2.45 ± 0.13,2.48 ± 0.13,2.52 ± 0.13,,
COC(C)(C)C [2-methoxy-2-methylpropane] + CCCC[N+]1(C)CCCC1.O=C1O[B-]2(OC1=O)OC(=O)C(=O)O2,,,6.34 ± 0.33,6.06 ± 0.31,5.87 ± 0.3,5.7 ± 0.29,5.57 ± 0.29
CC(C)=O [acetone] + CCCC[N+]1(C)CCCC1.N#C[B-](C#N)(C#N)C#N,0.445 ± 0.03,0.45 ± 0.03,0.461 ± 0.03,0.471 ± 0.03,0.481 ± 0.03,,
CC(C)=O [acetone] + CCCC[N+]1(C)CCCC1.O=C1O[B-]2(OC1=O)OC(=O)C(=O)O2,,,0.762 ± 0.037,0.767 ± 0.037,0.773 ± 0.037,0.778 ± 0.037,0.784 ± 0.037
CC#N [acetonitrile] + CCCC[N+]1(C)CCCC1.N#C[B-](C#N)(C#N)C#N,0.425 ± 0.029,0.426 ± 0.029,0.427 ± 0.029,0.429 ± 0.029,0.43 ± 0.029,,
CC#N [acetonitrile] + CCCC[N+]1(C)CCCC1.O=C1O[B-]2(OC1=O)OC(=O)C(=O)O2,,,0.509 ± 0.031,0.512 ± 0.031,0.514 ± 0.031,0.516 ± 0.031,0.517 ± 0.031
c1ccccc1 [benzene] + CCCC[N+]1(C)CCCC1.N#C[B-](C#N)(C#N)C#N,0.833 ± 0.039,0.841 ± 0.039,0.858 ± 0.039,0.874 ± 0.04,0.891 ± 0.04,,
c1ccccc1 [benzene] + CCCC[N+]1(C)CCCC1.O=C1O[B-]2(OC1=O)OC(=O)C(=O)O2,,,1.65 ± 0.08,1.63 ± 0.08,1.61 ± 0.08,1.6 ± 0.08,1.59 ± 0.08
CCC(C)=O [butanone] + CCCC[N+]1(C)CCCC1.N#C[B-](C#N)(C#N)C#N,0.546 ± 0.031,0.551 ± 0.031,0.564 ± 0.032,0.575 ± 0.032,0.588 ± 0.032,,
CCC(C)=O [butanone] + CCCC[N+]1(C)CCCC1.O=C1O[B-]2(OC1=O)OC(=O)C(=O)O2,,,1.13 ± 0.05,1.12 ± 0.05,1.11 ± 0.05,1.11 ± 0.05,1.1 ± 0.05
C1CCCCC1 [cyclohexane] + CCCC[N+]1(C)CCCC1.N#C[B-](C#N)(C#N)C#N,8.51 ± 0.44,8.26 ± 0.43,7.83 ± 0.4,7.44 ± 0.38,7.11 ± 0.37,,

# The next lines start with the values.
activity coefficient (318.15 K),activity coefficient (323.15 K),activity coefficient (333.15 K),activity coefficient (343.15 K),activity coefficient (353.15 K),activity coefficient (363.15 K),activity coefficient (373.15 K),Compound
,,20.2 ± 1,17.9 ± 0.9,16.2 ± 0.8,14.7 ± 0.8,13.6 ± 0.7,C1CCCCC1 [cyclohexane] + CCCC[N+]1(C)CCCC1.O=C1O[B-]2(OC1=O)OC(=O)C(=O)O2
0.536 ± 0.031,0.542 ± 0.031,0.59 ± 0.03,0.574 ± 0.032,0.59 ± 0.032,,,ClCCl [dichloromethane] + CCCC[N+]1(C)CCCC1.N#C[B-](C#N)(C#N)C#N
,,0.745 ± 0.036,0.76 ± 0.037,0.774 ± 0.037,0.789 ± 0.037,0.803 ± 0.038,ClCCl [dichloromethane] + CCCC[N+]1(C)CCCC1.O=C1O[B-]2(OC1=O)OC(=O)C(=O)O2
5.87 ± 0.3,5.88 ± 0.3,5.86 ± 0.3,5.85 ± 0.3,5.84 ± 0.3,,,CC(C)OC(C)C [diisopropyl ether] + CCCC[N+]1(C)CCCC1.N#C[B-](C#N)(C#N)C#N
,,18.4 ± 1,17 ± 0.9,16 ± 0.8,15.1 ± 0.8,14.4 ± 0.7,CC(C)OC(C)C [diisopropyl ether] + CCCC[N+]1(C)CCCC1.O=C1O[B-]2(OC1=O)OC(=O)C(=O)O2
0.522 ± 0.031,0.529 ± 0.031,0.543 ± 0.031,0.556 ± 0.032,0.57 ± 0.032,,,COC(=O)OC [dimethyl carbonate] + CCCC[N+]1(C)CCCC1.N#C[B-](C#N)(C#N)C#N
,,0.853 ± 0.039,0.861 ± 0.039,0.87 ± 0.04,0.877 ± 0.04,0.884 ± 0.04,COC(=O)OC [dimethyl carbonate] + CCCC[N+]1(C)CCCC1.O=C1O[B-]2(OC1=O)OC(=O)C(=O)O2
1.32 ± 0.06,1.27 ± 0.06,1.17 ± 0.05,1.09 ± 0.05,1.02 ± 0.05,,,CCO [ethanol] + CCCC[N+]1(C)CCCC1.N#C[B-](C#N)(C#N)C#N
,,1.92 ± 0.1,1.75 ± 0.09,1.61 ± 0.08,1.49 ± 0.07,1.38 ± 0.07,CCO [ethanol] + CCCC[N+]1(C)CCCC1.O=C1O[B-]2(OC1=O)OC(=O)C(=O)O2
0.942 ± 0.042,0.949 ± 0.042,0.967 ± 0.043,0.982 ± 0.043,1 ± 0.04,,,CCOC(C)=O [ethyl acetate] + CCCC[N+]1(C)CCCC1.N#C[B-](C#N)(C#N)C#N
